Assay: Stock solution stability at approximately 4° C. (old vs new stock peak areas)
Type: physicochemical
Conditions: for Stock solution stability, RE % (to New) of old stock peak area: approximately 4° C.
Procedure: The following LC-MS/MS conditions were applied for the analysis of underivatized sodium 2,2-dimethylbutyrate and DMV for stock solution stability analysis (2 to 3.5 month), and system suitability associated with these analyses: The following samples were also analyzed either in conjunction with one of the precision and accuracy runs or in one of the additional validation runs. Samples from six lots of control human plasma for specificity. Samples from six lots of control human plasma fortified with internal standard for specificity. Two concentration levels of unextracted QC-samples in triplicate (solvent standards) were analyzed for the evaluation of the recovery of sodium 2,2-dimethylbutyrate and DMV in human plasma. Two levels of QC samples (Low QC and High QC in triplicate) were subjected to three freeze/thaw cycles at approximately −70° C. prior to extraction to evaluate freeze/thaw stability. Two levels of QC samples (Low QC and High QC in triplicate) were placed on the bench top for approximately 17 hours prior to extraction for the evaluation of the bench top stability. Triplicate low QC samples and triplicate high QC samples were stored for one month and three months in a freezer at approximately −70° C., and then extracted and analyzed to evaluate long term stability in human plasma. Two levels of extracted QC samples (Low QC and High QC) were re-analyzed after approximately 71 hours in the autosampler at room temperature to evaluate the extract autosampler stability. Two levels of extracted QC samples (Low QC and High QC) were re-analyzed after approximately 8 hours in the freezer at approximately −20° C. to evaluate the extract freeze stability. Three aliquots of a dilution QC sample diluted 10-fold. Triplicate dilutions of the old stock solution (stored at approximately 4° C.) and new stock solutions prepared at intervals of two weeks and one month. Statistical calculations in the report tables were calculated from unrounded concentration values taken directly from the raw data. The concentration values were rounded for display purposes. Fresh stock solutions of sodium 2,2-dimethylbutyrate were prepared at intervals of two weeks and 1, 2, 3 and 3.5 months after the initial standard preparation. Similarly, the stability intervals for DMV were two weeks and 1, 2 and 3 months. The initial (or old) stock solutions and the fresh stock solutions were diluted into the calibration standard range and analyzed. The peak areas for the fresh (new) and old standard solutions were compared. Beginning with the 2-month stability analysis, sodium 2,2-dimethylbutyrate and DMV stock solutions were analyzed underivatized. This was done since the peak areas of both sodium 2,2-dimethylbutyrate and DMV varied among replicate derivatized preparations. Analyzing the standard solutions underivatized was a simpler procedure which gave more accurate and precise results

## CCCC(C)(C)C(=O)O [DMV, 2,2-Dimethylvaleric acid, reference compound]
1 Month Interval
  Stock solution stability, RE % (to New) of old stock peak area: 23.9%
2 Month Interval, underivatized
  Stock solution stability, RE % (to New) of old stock peak area: 14.3%
2 Week Interval
  Stock solution stability, RE % (to New) of old stock peak area: 16.7%
3 Month Interval, underivatized
  Stock solution stability, RE % (to New) of old stock peak area: 17.8%
~2 Month Interval, repeated with the 1 month stock solution as old, underivatized
  Stock solution stability, RE % (to New) of old stock peak area: −7.2%
Stock solution in acetonitrile/water stored in a refrigerator at approximately 4° C.
  Time stock solutions are stable: at least 2 months

— US20110033946A1, “DETECTION OF SHORT-CHAIN FATTY ACIDS IN BIOLOGICAL SAMPLES” (HEMAQUEST PHARMACEUTICALS, INC., priority 2009, published 2011)
